As a reminder, the Inhibition is the percentage by which the read-out fell short of the control.

Data on 4 molecules can be found in patent US20210087159A1, “TETRAHYDROCANNABINOLIC- CA[…] DERIVATIVES AND USES THEREOF” (AL&AM […]., priority 2018, published 2021).

Test in all cases: CellTiter-Glo cell viability assay, cancer cell cytotoxicity/anti-proliferation panel (Chempartner)
Type in all cases: cell-based
(In general: ATP-based viability assays read luminescence as a measure of living cells.)

In one experiment the test system is OMP-2, multiple myeloma. Particulars: for IC50: 72 h, read-out: IC50 (absolute IC50); for Inhibition: OMP-2, 72 hours, compounds 10 μM starting, STS 2 μM starting, 10-pt, 3-fold dilution.
The next experiment concerns A549, lung carcinoma. Particulars: for Inhibition: A549, 72 hours, compounds 10 μM starting, STS 2 μM starting, 10-pt, 3-fold dilution; for IC50: Homo sapiens, A549, 72 h, read-out: IC50 (absolute IC50).
In experiment [1] the test system is T47D, breast ductal carcinoma. The conditions noted are these: for IC50: Homo sapiens; for Inhibition: compounds 10 μM starting, STS 2 μM starting.
For experiment [2], the system named is U-87 MG, brain glioblastoma. The conditions noted are these: for Inhibition: 72 hours, compounds 10 μM starting, STS 2 μM starting, 10-pt, 3-fold dilution; for IC50: Homo sapiens, 72 h, read-out: IC50 (absolute IC50).
The subject of experiment [3] is PANC-1, pancreas ductal carcinoma. The conditions noted are these: for IC50: Homo sapiens, PANC-1, 72 h, read-out: IC50 (absolute IC50); for Inhibition: PANC-1, 72 hours, compounds 10 μM starting, STS 2 μM starting, 10-pt, 3-fold dilution.
Experiment [4] deals with SK-HEP-1, liver adenocarcinoma. The conditions noted are these: for IC50: Homo sapiens, SK-HEP1, 72 h, read-out: IC50 (absolute IC50); for Inhibition: SK-HEP-1, 72 hours, compounds 10 μM starting, STS 2 μM starting, 10-pt, 3-fold dilution.
[5] abbreviates: T47D, 72 h, read-out: IC50 (absolute IC50).
The mark [6] stands for this setting: T47D, 72 hours, 10-pt, 3-fold dilution.

Like-named read-outs stand apart in the source and are kept apart here.

For the molecule `CCCCCc1cc2c(c(O)c1C(=O)O)[C@@H]1C=C(C)CC[C@H]1C(C)(C)O2` [THCA, tetrahydrocannabinolic acid, reference compound], the IC50 with OMP-2, multiple myeloma is greater than 10 µM; in the experiment on A549, lung carcinoma, greater than 10 µM; in experiment [1] (setting [5]), greater than 10 µM; in experiment [2] it was greater than 10 µM; in experiment [3], greater than 10 µM; in experiment [4] it was greater than 10 µM. The Inhibition in the experiment with OMP-2, multiple myeloma was 5.94%; with A549, lung carcinoma, 9.30%; in experiment [1] (setting [6]), 18.20%; in experiment [2] it was 10.52%; in experiment [3], 15.20%; in experiment [4], 16.52%.
As to `C=C(C)[C@@H]1CCC(C)=C[C@H]1c1c(O)cc(CCCCC)c(C(=O)NCCCN2CCOCC2)c1O` [Ia28, (1′R,2′R)-2,6-dihydroxy-5′-methyl-N-(3-morpholinopropyl)-4-pentyl-2′-(prop-1-en-2-yl)-1′,2′,3′,4′-tetrahydro-[1,1′-biphenyl]-3-carboxamide], the IC50 in experiment [1] (Table 5, T47D cells, 72 hours, read-out: AbsIC50) was greater than 10 µM. This molecule also showed an Inhibition % in experiment [1] (Table 5, T47D cells, 72 hours, 10 μM starting, 10-pt, 3-fold dilution) of 14.85%.
For `CCCCCc1cc2c(c(O)c1C(=O)NCCN(C)C)[C@@H]1C=C(C)CC[C@H]1C(C)(C)O2` [Ia6, (6aR,0aR)—N-(2-(dimethylamino)ethyl)-1-hydroxy-6,6,9-trimethyl-3-pentyl-6a,7,8,10a-tetrahydro-6H-benzo[c]chromene-2-carboxamide], the IC50 in the experiment with OMP-2, multiple myeloma was greater than 10 µM; with A549, lung carcinoma it was 7.34 µM; in experiment [1] (setting [5]) it was 6.09 µM; in experiment [2], greater than 10 µM; in experiment [3], 6.02 µM; in experiment [4], greater than 10 µM. Moreover, the Inhibition worked out at 47.73% in the experiment on OMP-2, multiple myeloma; 66.67% in the experiment with A549, lung carcinoma; 84.19% in experiment [1] (setting [6]); 13.79% in experiment [2]; 90.10% in experiment [3]; 49.38% in experiment [4].
For `CCCCCc1cc2c(c(O)c1C(=O)NCCCN1CCOCC1)[C@@H]1C=C(C)CC[C@H]1C(C)(C)O2` [Ia9, (6aR,0aR)-1-hydroxy-6,6,9-trimethyl-N-(3-morpholinopropyl)-3-pentyl-6a,7,8,10a-tetrahydro-6H-benzo[c]chromene-2-carboxamide], the IC50 in the experiment on OMP-2, multiple myeloma is 6.72 µM; in the experiment on A549, lung carcinoma, 5.59 µM; in experiment [1] (setting [5]), 5.52 µM; in experiment [2], greater than 10 µM; in experiment [3], 5.46 µM; in experiment [4], 5.41 µM. The Inhibition in the experiment with OMP-2, multiple myeloma stood at 76.40%; in the experiment with A549, lung carcinoma, 77.08%; in experiment [1] (setting [6]) it was 97.90%; in experiment [2], 19.84%; in experiment [3], 92.19%; in experiment [4], 78.20%.
